From patent US20060046976A1, “Method for increasing the bone mineral density and bone micro-architecture or connectivity of a mammal using N-acylated glucosamines” (priority 2004, published 2006)

Test system: SCW-arthritis rats
Assay: Two-dimensional subchondral bone analysis (structure, connectivity/strut analysis, plate thickness) of proximal tibia, SCW-arthritis rats
Assay type: in vivo, Lewis type rats
[1] = SCW + 20 mg, Middle section/lateral
[2] = SCW + 20 mg, Middle section/medial

Question: `CCCC(=O)N[C@H]1C(O)O[C@H](CO)[C@@H](O)[C@@H]1O` (stereo partly drawn) [GlcNBu, N-butyryl-D-glucosamine] was tested. Which 2D-BV/TV % loss (SCW + 20 mg, Anterior/lateral) did it give?
Answer: 40%

Question: What about the “2D-BV/TV Mean ± SEM” value (SCW + 20 mg, Anterior/lateral) of the same molecule?
Answer: 23.7 ± 2.3%

Question: What about the 2D-Tb.N % loss (SCW + 20 mg, Anterior/lateral) of the same molecule?
Answer: 21%

Question: What about the “2D-Tb.N Mean ± SEM” value (SCW + 20 mg, Anterior/lateral) of the same molecule?
Answer: 5.8 ± 0.4 /mm

Question: And the 2D-Tb.Th % loss (SCW + 20 mg, Anterior/lateral)?
Answer: 32%

Question: And the “2D-Tb.Th Mean ± SEM” value (SCW + 20 mg, Anterior/lateral)?
Answer: 38.7 ± 1.7 um

Question: What about the “End Points % loss” value (SCW + 20 mg, Anterior/lateral) of the same molecule?
Answer: −134%

Question: What about the “End Points Mean ± SEM” value (SCW + 20 mg, Anterior/lateral) of the same molecule?
Answer: 36.2 ± 2.5 1/mm2

Question: What about the “Multiple points % loss” value (SCW + 20 mg, Anterior/lateral) of the same molecule?
Answer: 43%

Question: And the “Multiple points Mean ± SEM” value (SCW + 20 mg, Anterior/lateral)?
Answer: 9.3 ± 1.6 1/mm2

Question: And the “Node-node struts % loss” value (SCW + 20 mg, Anterior/lateral)?
Answer: 75%

Question: What about the “Node-node struts Mean ± SEM” value (SCW + 20 mg, Anterior/lateral) of the same molecule?
Answer: 0.8 ± 0.2 mm/mm2

Question: And the “Total Strut length % loss” value (SCW + 20 mg, Anterior/lateral)?
Answer: 30%

Question: What about the “Total Strut length Mean ± SEM” value (SCW + 20 mg, Anterior/lateral) of the same molecule?
Answer: 5.3 ± 0.4 mm/mm2

Question: And the 2D-BV/TV % loss (SCW + 20 mg, Anterior/medial)?
Answer: 33%

Question: What about the “2D-BV/TV Mean ± SEM” value (SCW + 20 mg, Anterior/medial) of the same molecule?
Answer: 27.2 ± 1.4%

Question: What about the 2D-Tb.N % loss (SCW + 20 mg, Anterior/medial) of the same molecule?
Answer: 12%

Question: And the “2D-Tb.N Mean ± SEM” value (SCW + 20 mg, Anterior/medial)?
Answer: 5.6 ± 0.3 /mm

Question: And the 2D-Tb.Th % loss (SCW + 20 mg, Anterior/medial)?
Answer: 29%

Question: And the “2D-Tb.Th Mean ± SEM” value (SCW + 20 mg, Anterior/medial)?
Answer: 48.6 ± 1.6 um

Question: What about the “End Points % loss” value (SCW + 20 mg, Anterior/medial) of the same molecule?
Answer: −67%

Question: What about the “End Points Mean ± SEM” value (SCW + 20 mg, Anterior/medial) of the same molecule?
Answer: 22.5 ± 1.7 1/mm2

Question: And the “Multiple points % loss” value (SCW + 20 mg, Anterior/medial)?
Answer: 42%

Question: What about the “Multiple points Mean ± SEM” value (SCW + 20 mg, Anterior/medial) of the same molecule?
Answer: 9.2 ± 1.0 1/mm2

Question: And the “Node-node struts % loss” value (SCW + 20 mg, Anterior/medial)?
Answer: 47%

Question: What about the “Node-node struts Mean ± SEM” value (SCW + 20 mg, Anterior/medial) of the same molecule?
Answer: 1.2 ± 0.2 mm/mm2

Question: And the “Total Strut length % loss” value (SCW + 20 mg, Anterior/medial)?
Answer: 14%

Question: What about the “Total Strut length Mean ± SEM” value (SCW + 20 mg, Anterior/medial) of the same molecule?
Answer: 5.1 ± 0.3 mm/mm2

Question: And the 2D-BV/TV % loss [1]?
Answer: 13%

Question: What about the “2D-BV/TV Mean ± SEM” value [1] of the same molecule?
Answer: 24.9 ± 1.6%

Question: What about the 2D-Tb.N % loss [1] of the same molecule?
Answer: 2%

Question: And the “2D-Tb.N Mean ± SEM” value [1]?
Answer: 4.6 ± 0.2 /mm

Question: And the 2D-Tb.Th % loss [1]?
Answer: 11%

Question: And the “2D-Tb.Th Mean ± SEM” value [1]?
Answer: 54.3 ± 2.8 um

Question: What about the “End Points % loss” value [1] of the same molecule?
Answer: −69%

Question: What about the “End Points Mean ± SEM” value [1] of the same molecule?
Answer: 17.5 ± 1.9 1/mm2

Question: And the “Multiple points % loss” value [1]?
Answer: 16%

Question: And the “Multiple points Mean ± SEM” value [1]?
Answer: 8.3 ± 1.1 1/mm2

Question: And the “Node-node struts % loss” value [1]?
Answer: 3%

Question: And the “Node-node struts Mean ± SEM” value [1]?
Answer: 1.0 ± 0.2 mm/mm2

Question: What about the “Total Strut length % loss” value [1] of the same molecule?
Answer: 14%

Question: What about the “Total Strut length Mean ± SEM” value [1] of the same molecule?
Answer: 4.0 ± 0.2 mm/mm2

Question: And the 2D-BV/TV % loss [2]?
Answer: 31%

Question: What about the “2D-BV/TV Mean ± SEM” value [2] of the same molecule?
Answer: 29.2 ± 2.3%

Question: What about the 2D-Tb.N % loss [2] of the same molecule?
Answer: 1%

Question: What about the “2D-Tb.N Mean ± SEM” value [2] of the same molecule?
Answer: 4.6 ± 0.2 /mm

Question: And the 2D-Tb.Th % loss [2]?
Answer: 30%

Question: What about the “2D-Tb.Th Mean ± SEM” value [2] of the same molecule?
Answer: 63.0 ± 4.0 um

Question: And the “End Points % loss” value [2]?
Answer: −184%

Question: What about the “End Points Mean ± SEM” value [2] of the same molecule?
Answer: 14.1 ± 2.3 1/mm2

Question: And the “Multiple points % loss” value [2]?
Answer: 13%

Question: What about the “Multiple points Mean ± SEM” value [2] of the same molecule?
Answer: 9.9 ± 1.1 1/mm2

Question: And the “Node-node struts % loss” value [2]?
Answer: 42%

Question: What about the “Node-node struts Mean ± SEM” value [2] of the same molecule?
Answer: 1.2 ± 0.2 mm/mm2

Question: And the “Total Strut length % loss” value [2]?
Answer: 11%

Question: What about the “Total Strut length Mean ± SEM” value [2] of the same molecule?
Answer: 4.2 ± 0.3 mm/mm2

Question: And the 2D-BV/TV % loss (SCW + 20 mg, Posterior/lateral)?
Answer: 21%

Question: And the “2D-BV/TV Mean ± SEM” value (SCW + 20 mg, Posterior/lateral)?
Answer: 24.9 ± 1.5%

Question: And the 2D-Tb.N % loss (SCW + 20 mg, Posterior/lateral)?
Answer: 7%

Question: And the “2D-Tb.N Mean ± SEM” value (SCW + 20 mg, Posterior/lateral)?
Answer: 4.8 ± 0.2 /mm

Question: And the 2D-Tb.Th % loss (SCW + 20 mg, Posterior/lateral)?
Answer: 19%

Question: And the “2D-Tb.Th Mean ± SEM” value (SCW + 20 mg, Posterior/lateral)?
Answer: 51.8 ± 1.6 um

Question: What about the “End Points % loss” value (SCW + 20 mg, Posterior/lateral) of the same molecule?
Answer: −100%

Question: And the “End Points Mean ± SEM” value (SCW + 20 mg, Posterior/lateral)?
Answer: 20.0 ± 1.8 1/mm2

Question: What about the “Multiple points % loss” value (SCW + 20 mg, Posterior/lateral) of the same molecule?
Answer: 55%

Question: What about the “Multiple points Mean ± SEM” value (SCW + 20 mg, Posterior/lateral) of the same molecule?
Answer: 7.8 ± 0.8 1/mm2

Question: And the “Node-node struts % loss” value (SCW + 20 mg, Posterior/lateral)?
Answer: 30%

Question: And the “Node-node struts Mean ± SEM” value (SCW + 20 mg, Posterior/lateral)?
Answer: 0.9 ± 0.1 mm/mm2

Question: What about the “Total Strut length % loss” value (SCW + 20 mg, Posterior/lateral) of the same molecule?
Answer: 11%

Question: What about the “Total Strut length Mean ± SEM” value (SCW + 20 mg, Posterior/lateral) of the same molecule?
Answer: 4.3 ± 0.2 mm/mm2

Question: What about the 2D-BV/TV % loss (SCW + 20 mg, Posterior/medial) of the same molecule?
Answer: 20%

Question: And the “2D-BV/TV Mean ± SEM” value (SCW + 20 mg, Posterior/medial)?
Answer: 36.2 ± 1.6%

Question: What about the 2D-Tb.N % loss (SCW + 20 mg, Posterior/medial) of the same molecule?
Answer: 3%

Question: What about the “2D-Tb.N Mean ± SEM” value (SCW + 20 mg, Posterior/medial) of the same molecule?
Answer: 6.2 ± 0.2 /mm

Question: What about the 2D-Tb.Th % loss (SCW + 20 mg, Posterior/medial) of the same molecule?
Answer: 23%

Question: What about the “2D-Tb.Th Mean ± SEM” value (SCW + 20 mg, Posterior/medial) of the same molecule?
Answer: 59.3 ± 2.3 um

Question: What about the “End Points % loss” value (SCW + 20 mg, Posterior/medial) of the same molecule?
Answer: −216%

Question: What about the “End Points Mean ± SEM” value (SCW + 20 mg, Posterior/medial) of the same molecule?
Answer: 16.2 ± 2.1 1/mm2

Question: And the “Multiple points % loss” value (SCW + 20 mg, Posterior/medial)?
Answer: 36%

Question: And the “Multiple points Mean ± SEM” value (SCW + 20 mg, Posterior/medial)?
Answer: 12.6 ± 1.4 1/mm2

Question: What about the “Node-node struts % loss” value (SCW + 20 mg, Posterior/medial) of the same molecule?
Answer: 37%

Question: What about the “Node-node struts Mean ± SEM” value (SCW + 20 mg, Posterior/medial) of the same molecule?
Answer: 1.7 ± 0.3 mm/mm2

Question: What about the “Total Strut length % loss” value (SCW + 20 mg, Posterior/medial) of the same molecule?
Answer: 10%

Question: And the “Total Strut length Mean ± SEM” value (SCW + 20 mg, Posterior/medial)?
Answer: 5.7 ± 0.3 mm/mm2

Question: What about the 2D-BV/TV % loss (SCW + 200 mg, Anterior/lateral) of the same molecule?
Answer: 37%

Question: And the “2D-BV/TV Mean ± SEM” value (SCW + 200 mg, Anterior/lateral)?
Answer: 24.8 ± 3.4%

Question: What about the 2D-Tb.N % loss (SCW + 200 mg, Anterior/lateral) of the same molecule?
Answer: 20%
